Patent US9034403B2, “Yeast extract containing γ-Glu-X or γ-Glu-X-Gly and a method for producing the same” (AJINOMOTO CO., INC., priority 2010, dated 2015)
Peptide text beside a SMILES is read from it.

Assays:
[1] = test system: Saccharomyces cerevisiae S288C strain; assay: Addition of Val-Gly to the S288C strain in SDP medium, γ-Glu-Val-Gly in dry cells; assay type: cell-based; details: Val-Gly 100 ppm added to SDP medium in advance, culture 24 hours
Procedure: One loop of the S288C strain was inoculated into SDP medium (ammonium sulfate used for the preparation of the SD medium was replaced with proline, final concentration of proline was 0.1 g/L, 50 ml in a 500 ml-volume Sakaguchi flask), and cultured at 30° C. for 24 hours with shaking at a velocity of 120 rpm. Absorbance of the resulting culture broth was measured, the culture broth was inoculated into SDP medium (400 ml in a 2 L-volume conical flask with baffle fins, two or more flasks) so that OD660 was 0.01 at the start of the culture, and culture was performed at 30° C. for 24 hours with shaking by rotation at a velocity of 120 rpm. To the SDP medium, Val-Gly (purchased from Bachem) was added in advance to a final concentration of 100 ppm. Using the culture broth, the amount of γ-Glu-Val-Gly in dry cells was calculated in the same manner as that of Example 2.

[2] = test system: S288C, S288C PADH1-HGT1, S288C PADH1-PTR2; assay: γ-Glu-Val-Gly producing ability from Val-Gly of Hgt1p or Ptr2p overproducing strains; assay type: cell-based, Saccharomyces cerevisiae; details: 100 ppm Val-Gly in SD medium, 20 hours
Procedure: S288C PADH1-HGT1, Hgt1p overproducing strain obtained in Example 12, S288C PADH1-PTR2, Ptr2p overproducing strain obtained in Example 12, and their parental strain S288C were evaluated for their γ-Glu-Val-Gly producing abilities from Val-Gly. Each strain was cultivated in 50-ml tubes containing 10 ml of SD medium with 100 ppm Val-Gly as a final concentration. Tubes were inoculated by overnight culture of corresponding strain at initial OD600=0.01, and placed in rotation shaker at 240 rpm, 30° C. Cultivation time was for 20 hours. Then, cells from 2 ml of broth culture were harvested by centrifugation, and washed with 1 ml of milliQ water three times. Then, washed cells were suspended in 1 ml of milliQ and incubated at 70° C. for 10 min with a water bath to extract intracellular materials. After cell debris and the extract were separated by centrifugation, the aqueous phase was transferred to a clean vial and then the vial was vacuum-dried. Thus, the dried extract was prepared. Then γ-Glu-Val-Gly in the dried extract was measured with LC-MS/MS analysis as described in Example 12.

## CC(C)[C@H](N)C(=O)NCC(=O)O [Val-Gly] (H-Val-Gly-OH)
[1]
  γ-Glu-Val-Gly in dry cells: 2 ppm
[2]; strain S288C PADH1-HGT1
  γ-Glu-Val-Gly in the dried extract: 0.03 μg 1^−1 OD600^−1
[2]; strain S288C PADH1-PTR2
  γ-Glu-Val-Gly in the dried extract: 8.89 μg 1^−1 OD600^−1
[2]; strain S288C
  γ-Glu-Val-Gly in the dried extract: 0.04 μg 1^−1 OD600^−1
